Assay results reported in ChEMBL document CHEMBL4402510, “Caprazamycins: Promising lead structures acting on a novel antibacterial target MraY” (Eur J Med Chem, 2019).
≈ marks a conversion by molar mass, not a printed value. One block for each compound: values may come before it.

Experiments:
[1] = target: T1, Phospho-N-acetylmuramoyl-pentapeptide-transferase (Bacillus subtilis (strain 168), UniProt Q03521); assay: Inhibition of MraY in Bacillus subtilis
T1 sequence (Q03521 whole entry): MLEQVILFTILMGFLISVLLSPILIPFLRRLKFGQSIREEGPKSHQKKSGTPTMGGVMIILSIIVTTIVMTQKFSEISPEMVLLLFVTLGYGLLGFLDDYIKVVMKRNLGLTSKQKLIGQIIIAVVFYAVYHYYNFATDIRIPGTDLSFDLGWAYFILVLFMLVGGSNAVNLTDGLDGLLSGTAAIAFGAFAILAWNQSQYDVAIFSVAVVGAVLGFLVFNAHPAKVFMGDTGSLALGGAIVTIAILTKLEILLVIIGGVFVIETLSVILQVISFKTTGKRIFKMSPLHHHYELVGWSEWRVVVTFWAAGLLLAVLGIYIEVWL

[2] = target: T2, Phospho-N-acetylmuramoyl-pentapeptide-transferase (Aquifex aeolicus (strain VF5), UniProt O66465); assay: Inhibition of MraY in Aquifex aeolicus
T2 sequence (O66465 whole entry): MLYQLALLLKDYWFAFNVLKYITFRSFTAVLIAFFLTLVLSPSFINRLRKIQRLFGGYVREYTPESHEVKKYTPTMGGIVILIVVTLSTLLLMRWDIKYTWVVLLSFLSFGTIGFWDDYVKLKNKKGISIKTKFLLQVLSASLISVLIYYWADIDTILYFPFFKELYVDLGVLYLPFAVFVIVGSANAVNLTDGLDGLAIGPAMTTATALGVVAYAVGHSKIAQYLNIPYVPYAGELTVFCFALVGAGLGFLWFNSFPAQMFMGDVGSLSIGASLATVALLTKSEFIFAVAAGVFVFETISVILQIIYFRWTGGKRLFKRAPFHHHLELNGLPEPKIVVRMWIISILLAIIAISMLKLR

[3] = test system: Enterococcus faecalis; assay: Antibacterial activity against Enterococcus faecalis SR7914 (VRE); format: functional
[4] = test system: Staphylococcus aureus; assay: Antibacterial activity against methicillin resistant Staphylococcus aureus SR3637; format: functional
[5] = test system: Enterococcus faecalis; assay: Antibacterial activity against Enterococcus faecalis ATCC 29212; format: functional
[6] = test system: Enterococcus faecium; assay: Antibacterial activity against Enterococcus faecium SR7917 (VRE); format: functional
[7] = test system: Staphylococcus aureus; assay: Antibacterial activity against methicillin susceptible Staphylococcus aureus ATCC 29213; format: functional
[8] = test system: Escherichia coli; assay: Antibacterial activity against Escherichia coli expressing MraY; format: functional, organism-based

Structure (SMILES): NC[C@H]1O[C@@H](O[C@@H](Cn2cc(CCOCCOCCOCCOCCO)nn2)[C@H]2O[C@@H](n3ccc(=O)[nH]c3=O)[C@H](O)[C@@H]2O)[C@H](O)[C@@H]1O
IC50 [2]: 450 µM

Structure (SMILES): NC[C@H]1O[C@@H](O[C@@H](c2cn(CCCCCOc3ccc(C(=O)c4ccccc4)cc3)nn2)[C@H]2O[C@@H](n3ccc(=O)[nH]c3=O)[C@H](O)[C@@H]2O)[C@H](O)[C@@H]1O
IC50 [1]: 100 µM

Structure (SMILES): NC[C@H]1O[C@@H](O[C@@H](Cc2cn(CCOCCOCCOCCOCCO)nn2)[C@H]2O[C@@H](n3ccc(=O)[nH]c3=O)[C@H](O)[C@@H]2O)[C@H](O)[C@@H]1O
IC50 [2]: 750 µM

Structure (SMILES): CCCCCCCCCCCCCCCC(=O)NC[C@@H]1CC2[C@H](C(=O)N1CCCNC(=N)N)[C@@H]([C@H]1O[C@@H](n3ccc(=O)[nH]c3=O)[C@H](O)[C@@H]1O)ON2CCCN (single isomer, unassigned)
MIC [3]: 16 µg/mL (≈ 20.6 µM)
MIC [4]: 16 µg/mL (≈ 20.6 µM)
MIC [5]: 16 µg/mL (≈ 20.6 µM)
MIC [6]: 8 µg/mL (≈ 10.3 µM)
MIC [7]: 16 µg/mL (≈ 20.6 µM)

Structure (SMILES): NC[C@H]1O[C@@H](O[C@@H](c2cn(CCN3CCN(c4ccc(N)cn4)CC3)nn2)[C@H]2O[C@@H](n3ccc(=O)[nH]c3=O)[C@H](O)[C@@H]2O)[C@H](O)[C@@H]1O
IC50 [1]: > 1000 µM

Structure (SMILES): CCCCCCCCCCCCCCC[C@H](NC(=O)[C@@H](N)CCCNC(=N)N)C(=O)NC[C@@H]1CC[C@H]2C(C(=O)N1)[C@H]([C@H]1O[C@@H](n3ccc(=O)[nH]c3=O)[C@H](O)[C@@H]1O)ON2CCCN (single isomer, unassigned)
MIC [3]: 16 µg/mL (≈ 18.2 µM)
MIC [4]: 32 µg/mL (≈ 36.4 µM)
MIC [5]: 16 µg/mL (≈ 18.2 µM)
MIC [6]: 8 µg/mL (≈ 9.11 µM)
MIC [7]: 16 µg/mL (≈ 18.2 µM)

Structure (SMILES): NC[C@H]1O[C@@H](O[C@@H](c2cn(CCc3ccc(-c4ccccc4)cc3)nn2)[C@H]2O[C@@H](n3ccc(=O)[nH]c3=O)[C@H](O)[C@@H]2O)[C@H](O)[C@@H]1O
IC50 [1]: 400 µM

Structure (SMILES): CCCCCCCCCCCCCCC[C@H](NC(=O)[C@@H](N)CCCNC(=N)N)C(=O)NC[C@@H]1CC2[C@@H](C(=O)N1)[C@H]([C@H]1O[C@@H](n3ccc(=O)[nH]c3=O)[C@H](O)[C@@H]1O)ON2CCCN (single isomer, unassigned)
MIC [3]: 32 µg/mL (≈ 37 µM)
MIC [4]: 32 µg/mL (≈ 37 µM)
MIC [5]: 16 µg/mL (≈ 18.5 µM)
MIC [6]: 16 µg/mL (≈ 18.5 µM)
MIC [7]: > 64 µg/mL

Structure (SMILES): CCCCCCCCCCCCCCC[C@H](NC(=O)[C@@H](N)CCCNC(=N)N)C(=O)NC[C@@H]1CC2[C@H](C(=O)N1)[C@@H]([C@H]1O[C@@H](n3ccc(=O)[nH]c3=O)[C@H](O)[C@@H]1O)ON2CCCN (single isomer, unassigned)
MIC [3]: 32 µg/mL (≈ 37 µM)
MIC [4]: 32 µg/mL (≈ 37 µM)
MIC [5]: 32 µg/mL (≈ 37 µM)
MIC [6]: 16 µg/mL (≈ 18.5 µM)
MIC [7]: > 64 µg/mL

Structure (SMILES): CCCCCCCCCCCCCCCC(=O)NC[C@@H]1CC[C@H]2C(C(=O)N1CCCNC(=N)N)[C@H]([C@H]1O[C@@H](n3ccc(=O)[nH]c3=O)[C@H](O)[C@@H]1O)ON2CCCN (single isomer, unassigned)
MIC [3]: 16 µg/mL (≈ 20.2 µM)
MIC [4]: 16 µg/mL (≈ 20.2 µM)
MIC [5]: 16 µg/mL (≈ 20.2 µM)
MIC [6]: 16 µg/mL (≈ 20.2 µM)
MIC [7]: > 64 µg/mL

Structure (SMILES): NC[C@H]1O[C@@H](O[C@@H](c2cn(CCCCCCCCCCOc3ccc(C(=O)c4ccccc4)cc3)nn2)[C@H]2O[C@@H](n3ccc(=O)[nH]c3=O)[C@H](O)[C@@H]2O)[C@H](O)[C@@H]1O
IC50 [1]: 125 µM

Structure (SMILES): NC[C@H]1O[C@@H](O[C@@H](Cn2cc(Cc3ccc(COc4ccc(C(=O)c5ccccc5)cc4)cc3)nn2)[C@H]2O[C@@H](n3ccc(=O)[nH]c3=O)[C@H](O)[C@@H]2O)[C@H](O)[C@@H]1O
IC50 [2]: 100 µM

Structure (SMILES): NC[C@H]1O[C@@H](O[C@@H](c2cn(CCCOc3ccc(C(=O)c4ccccc4)cc3)nn2)[C@H]2O[C@@H](n3ccc(=O)[nH]c3=O)[C@H](O)[C@@H]2O)[C@H](O)[C@@H]1O [listing 1 of 2 here]
IC50 [1]: 100 µM
IC50 [2]: 125 µM

Structure (SMILES): NC[C@H]1O[C@@H](O[C@@H](Cc2cn(CCCCCCCCCCOc3ccc(C(=O)c4ccccc4)cc3)nn2)[C@H]2O[C@@H](n3ccc(=O)[nH]c3=O)[C@H](O)[C@@H]2O)[C@H](O)[C@@H]1O
IC50 [2]: 25 µM

Structure (SMILES): NC[C@H]1O[C@@H](O[C@@H](c2cn(CCCOc3ccc(C(=O)c4ccccc4)cc3)nn2)[C@H]2O[C@@H](n3ccc(=O)[nH]c3=O)[C@H](O)[C@@H]2O)[C@H](O)[C@@H]1O [listing 2 of 2 here]
IC50 [1]: 100 µM

More lines, now with the values ahead:

IC50 [1]: > 1000 µM
Structure (SMILES): NC[C@H]1O[C@@H](O[C@@H](c2cn(CCCO)nn2)[C@H]2O[C@@H](n3ccc(=O)[nH]c3=O)[C@H](O)[C@@H]2O)[C@H](O)[C@@H]1O

IC50 [1]: > 1000 µM
Structure (SMILES): NCCCCCn1cc([C@H](O[C@@H]2O[C@H](CN)[C@@H](O)[C@H]2O)[C@H]2O[C@@H](n3ccc(=O)[nH]c3=O)[C@H](O)[C@@H]2O)nn1

IC50 [1]: > 1000 µM
Structure (SMILES): NC[C@H]1O[C@@H](O[C@@H](c2cn(CCCCCO)nn2)[C@H]2O[C@@H](n3ccc(=O)[nH]c3=O)[C@H](O)[C@@H]2O)[C@H](O)[C@@H]1O

IC50 [2]: 40 µM
Structure (SMILES): NC[C@H]1O[C@@H](O[C@@H](Cc2cn(CCCCCCCCCCO)nn2)[C@H]2O[C@@H](n3ccc(=O)[nH]c3=O)[C@H](O)[C@@H]2O)[C@H](O)[C@@H]1O

IC50 [1]: 250 µM
Structure (SMILES): NC[C@H]1O[C@@H](O[C@@H](c2cn(CCCc3ccccc3)nn2)[C@H]2O[C@@H](n3ccc(=O)[nH]c3=O)[C@H](O)[C@@H]2O)[C@H](O)[C@@H]1O

IC50 [2]: 400 µM
Structure (SMILES): NC[C@H]1O[C@@H](O[C@@H](Cn2cc(CCCCCO)nn2)[C@H]2O[C@@H](n3ccc(=O)[nH]c3=O)[C@H](O)[C@@H]2O)[C@H](O)[C@@H]1O

IC50 [1]: 100 µM
Structure (SMILES): C#C[C@H](O[C@@H]1O[C@H](CN)[C@@H](O)[C@H]1O)[C@H]1O[C@@H](n2ccc(=O)[nH]c2=O)[C@H](O)[C@@H]1O

IC50 [1]: > 1000 µM
Structure (SMILES): NC[C@H]1O[C@@H](O[C@@H](c2cn(C3CCCCCC3)nn2)[C@H]2O[C@@H](n3ccc(=O)[nH]c3=O)[C@H](O)[C@@H]2O)[C@H](O)[C@@H]1O

IC50 [1]: 140 µM
Structure (SMILES): CCCCCCCCCCn1cc([C@H](O[C@@H]2O[C@H](CN)[C@@H](O)[C@H]2O)[C@H]2O[C@@H](n3ccc(=O)[nH]c3=O)[C@H](O)[C@@H]2O)nn1

IC50 [2]: 400 µM
Structure (SMILES): NC[C@H]1O[C@@H](O[C@@H](Cc2cn(CCCCCO)nn2)[C@H]2O[C@@H](n3ccc(=O)[nH]c3=O)[C@H](O)[C@@H]2O)[C@H](O)[C@@H]1O

IC50 [2]: 200 µM
Structure (SMILES): NCCCCCCCCCn1cc(C[C@H](O[C@@H]2O[C@H](CN)[C@@H](O)[C@H]2O)[C@H]2O[C@@H](n3ccc(=O)[nH]c3=O)[C@H](O)[C@@H]2O)nn1

IC50 [1]: > 1000 µM
Structure (SMILES): NC[C@H]1O[C@@H](O[C@@H](c2cn(CCCn3ccnc3)nn2)[C@H]2O[C@@H](n3ccc(=O)[nH]c3=O)[C@H](O)[C@@H]2O)[C@H](O)[C@@H]1O

IC50 [2]: 250 µM
Structure (SMILES): NCCCCCCCCCc1cn(C[C@H](O[C@@H]2O[C@H](CN)[C@@H](O)[C@H]2O)[C@H]2O[C@@H](n3ccc(=O)[nH]c3=O)[C@H](O)[C@@H]2O)nn1

IC50 [2]: 75 µM
Structure (SMILES): NC[C@H]1O[C@@H](O[C@@H](Cn2cc(CCCCCCCCCCO)nn2)[C@H]2O[C@@H](n3ccc(=O)[nH]c3=O)[C@H](O)[C@@H]2O)[C@H](O)[C@@H]1O

IC50 [1]: 150 µM
Structure (SMILES): NC[C@H]1O[C@@H](O[C@@H](c2cn(CCCCCN3CCCCC3)nn2)[C@H]2O[C@@H](n3ccc(=O)[nH]c3=O)[C@H](O)[C@@H]2O)[C@H](O)[C@@H]1O

IC50 [8]: 150 µM
Structure (SMILES): CCNC[C@H]1O[C@@H](OC[C@H]2O[C@@H](n3ccc(=O)[nH]c3=O)[C@H](O)[C@@H]2O)[C@H](O)[C@@H]1O

IC50 [8]: 140 µM
Structure (SMILES): CCCNC[C@H]1O[C@@H](OC[C@H]2O[C@@H](n3ccc(=O)[nH]c3=O)[C@H](O)[C@@H]2O)[C@H](O)[C@@H]1O
